From patent US10849881B2, “Octahydro-cyclobuta[1,2-c;3,4-c′]dipyrrol-2-yl” (Hoffmann-La Roche Inc., priority 2013, dated 2020)

Molecular target: ATX (human His-tagged) (Homo sapiens (Human), UniProt Q13822)
Assay: Human ATX enzyme inhibition assay (fluorescence quenching, MR121 substrate)
Type: biochemical
Conditions: 30 nM ATX, 1 μM MR121 substrate, 30° C., pH 8.0
Procedure: Human ATX Enzyme Inhibition Assay
ATX inhibition was measured by a fluorescence quenching assay using a specifically labeled substrate analogue (MR121 substrate). To obtain this MR121 substrate, BOC and TBS protected 6-amino-hexanoic acid (R)-3-({2-[3-(2-{2-[2-(2-amino-ethoxy)-ethoxy]-ethoxy}-ethoxy)-propionylamino]-ethoxy}-hydroxy-phosphoryloxy)-2-hydroxy-propyl ester (Ferguson et al., Org Lett 2006, 8 (10), 2023) was labeled with MR121 fluorophore (CAS 185308-24-1, 1-(3-carboxypropyl)-11-ethyl-1,2,3,4,8,9,10,11-octahydro-dipyrido[3,2-b:2′,3′-i]phenoxazin-13-ium) on the free amine of the ethanolamine side and then, after deprotection, subsequently with tryptophan on the side of the aminohexanoic acid.
Assay working solutions were made as follows:
Assay buffer (50 mM Tris-HCl, 140 mM NaCl, 5 mM KCl, 1 mM CaCl2, 1 mM MgCl2, 0.01% Triton-X-100, pH 8.0;
ATX solution: ATX (human His-tagged) stock solution (1.08 mg/mL in 20 mM bicine, pH 8.5, 0.15 M NaCl, 10% glycerol, 0.3% CHAPS, 0.02% NaN3), diluted to 1.4-2.5× final concentration in assay buffer;
MR121 substrate solution: MR121 substrate stock solution (800 μM MR121 substrate in DMSO), diluted to 2-5× final concentration in assay buffer.
Test compounds (10 mM stock in DMSO, 8 μL) were obtained in 384 well sample plates (Corning Costar #3655) and diluted with 8 μL DMSO. Row-wise serial dilutions were made by transferring 8 μL cpd solution to the next row up to row O. The compound and control solutions were mixed five times and 2 μL were transferred to 384 well assay plates (Corning Costar #3702). Then, 15 μL of 41.7 nM ATX solution was added (30 nM final concentration), mixed five times and then incubated for 15 minutes at 30° C. 10 μL of MR121 substrate solution was added (1 μM final concentration), mixed 30 times and then incubated for 15 minutes at 30′C.

| SMILES | IC50 [µM] |
| --- | --- |
| COc1cc(C(=O)N2C[C@@H]3[C@H]4CN(C(=O)c5ccc6[nH]nnc6c5)C[C@H]4[C@@H]3C2)nc2ccccc12 [Example 1.029, [(3aR,3bS,6aR,6bS)-5-(1H-benzotriazole-5-carbonyl)-octahydro-cyclobuta[1,2-c;3,4-c′]dipyrrol-2-yl]-(4-methoxy-quinolin-2-yl)-methanone] | 0.07 |
| Cc1oc(-c2ccc(Cl)cc2)nc1C(=O)N1C[C@@H]2[C@H]3CN(C(=O)c4ccc5[nH]nnc5c4)C[C@H]3[C@@H]2C1 [Example 1.030, [(3aR,3bS,6aR,6bS)-5-(1H-benzotriazole-5-carbonyl)-octahydro-cyclobuta[1,2-c;3,4-c′]dipyrrol-2-yl]-[2-(4-chloro-phenyl)-5-methyl-oxazol-4-yl]-methanone] | 0.104 |
| O=C(c1ccc2[nH]nnc2c1)N1C[C@@H]2[C@H](C1)[C@H]1CN(C(=O)C3CCc4ccccc4C3)C[C@@H]21 (stereo partly drawn) [Example 1.031, [(3aS,3bR,6aS,6bR)-5-(1H-benzotriazole-5-carbonyl)-octahydro-cyclobuta[1,2-c;3,4-c′]dipyrrol-2-yl]-(1,2,3,4-tetrahydro-naphthalen-2-yl)-methanone] | 0.224 |
| Cn1c(C(=O)N2C[C@@H]3[C@H]4CN(C(=O)c5ccc6[nH]nnc6c5)C[C@H]4[C@@H]3C2)cc2cc(OC(F)(F)F)ccc21 [Example 1.032, [(3aR,3bS,6aR,6bS)-5-(1H-benzotriazole-5-carbonyl)-octahydro-cyclobuta[1,2-c;3,4-c′]dipyrrol-2-yl]-(1-methyl-5-trifluoromethoxy-1H-indol-2-yl)-methanone] | 0.013 |
| O=C(c1ccc2[nH]nnc2c1)N1C[C@@H]2[C@H](C1)[C@H]1CN(C(=O)c3cc4ccc(Cl)cc4[nH]3)C[C@@H]21 [Example 1.033, [(3aR,3bS,6aR,6bS)-5-(1H-benzotriazole-5-carbonyl)-octahydro-cyclobuta[1,2-c;3,4-c′]dipyrrol-2-yl]-(6-chloro-1H-indol-2-yl)-methanone] | 0.104 |
| Cn1c(C(=O)N2C[C@@H]3[C@H]4CN(C(=O)c5ccc6[nH]nnc6c5)C[C@H]4[C@@H]3C2)cc2ccc(Cl)cc21 [Example 1.034, [(3aR,3bS,6aR,6bS)-5-(1H-benzotriazole-5-carbonyl)-octahydro-cyclobuta[1,2-c;3,4-c′]dipyrrol-2-yl]-(6-chloro-1-methyl-1H-indol-2-yl)-methanone] | 0.489 |
| Cc1ccc2cc(C(=O)N3C[C@@H]4[C@H]5CN(C(=O)c6ccc7[nH]nnc7c6)C[C@H]5[C@@H]4C3)[nH]c2c1 [Example 1.035, [(3aR,3bS,6aR,6bS)-5-(1H-benzotriazole-5-carbonyl)-octahydro-cyclobuta[1,2-c;3,4-c′]dipyrrol-2-yl]-(6-methyl-1H-indol-2-yl)-methanone] | 0.243 |
| N#CCn1c(C(=O)N2C[C@@H]3[C@H]4CN(C(=O)c5ccc6[nH]nnc6c5)C[C@H]4[C@@H]3C2)cc2ccccc21 [Example 1.036, {2-[(3aR,3bS,6aR,6bS)-5-(1H-benzotriazole-5-carbonyl)-octahydro-cyclobuta[1,2-c;3,4-c′]dipyrrole-2-carbonyl]-indol-1-yl}-acetonitrile] | 0.13 |
| CC(C)Cn1c(C(=O)N2C[C@@H]3[C@H]4CN(C(=O)c5ccc6[nH]nnc6c5)C[C@H]4[C@@H]3C2)cc2ccccc21 [Example 1.037, [(3aR,3bS,6aR,6bS)-5-(1H-benzotriazole-5-carbonyl)-octahydro-cyclobuta[1,2-c;3,4-c′]dipyrrol-2-yl]-(1-isobutyl-1H-indol-2-yl)-methanone] | 0.159 |
| O=C(c1ccc2[nH]nnc2c1)N1C[C@@H]2[C@H](C1)[C@H]1CN(C(=O)c3ccc4ccccc4n3)C[C@@H]21 [Example 1.038, [(3aR,3bS,6aR,6bS)-5-(1H-benzotriazole-5-carbonyl)-octahydro-cyclobuta[1,2-c;3,4-c′]dipyrrol-2-yl]-quinolin-2-yl-methanone] | 0.687 |
| O=C(c1ccc2[nH]nnc2c1)N1C[C@@H]2[C@H](C1)[C@H]1CN(C(=O)c3cc4ccccc4cn3)C[C@@H]21 [Example 1.039, [(3aR,3bS,6aR,6bS)-5-(1H-benzotriazole-5-carbonyl)-octahydro-cyclobuta[1,2-c;3,4-c′]dipyrrol-2-yl]-isoquinolin-3-yl-methanone] | 3.33 |
| O=C(c1ccc2[nH]nnc2c1)N1C[C@@H]2[C@H](C1)[C@H]1CN(C(=O)c3ccc4cc[nH]c4c3)C[C@@H]21 [Example 1.040, [(3aS,3bS,6aR,6bR)-5-(1H-benzotriazole-5-carbonyl)-octahydro-cyclobuta[1,2-c;3,4-c′]dipyrrol-2-yl]-(1H-indol-6-yl)-methanone] | 8.67 |
| O=C1CC(C(=O)N2C[C@@H]3[C@H]4CN(C(=O)c5ccc6[nH]nnc6c5)C[C@H]4[C@@H]3C2)Cc2ccccc21 (stereo partly drawn) [Example 1.041, 3-[(3aS,3bR,6aS,6bR)-5-(1H-benzotriazole-5-carbonyl)-octahydro-cyclobuta[1,2-c;3,4-c′]dipyrrole-2-carbonyl]-3,4-dihydro-2H-naphthalen-1-one] | 0.538 |
| O=C(c1ccc2[nH]nnc2c1)N1C[C@@H]2[C@H](C1)[C@H]1CN(C(=O)C3CCc4ccccc4O3)C[C@@H]21 (stereo partly drawn) [Example 1.042, [(3aR,3bS,6aR,6bS)-5-(1H-benzotriazole-5-carbonyl)-octahydro-cyclobuta[1,2-c;3,4-c′]dipyrrol-2-yl]-chroman-2-yl-methanone] | 0.632 |
| O=C(c1ccc2[nH]ccc2c1)N1C[C@@H]2[C@H](C1)[C@H]1CN(C(=O)c3ccc4[nH]nnc4c3)C[C@@H]21 [Example 1.043, [(3aS,3bS,6aR,6bR)-5-(1H-benzotriazole-5-carbonyl)-octahydro-cyclobuta[1,2-c;3,4-c′]dipyrrol-2-yl]-(1H-indol-5-yl)-methanone] | 1.41 |
| COc1cc(C(=O)N2C[C@@H]3[C@H](C2)[C@H]2CN(C(=O)[C@@H]4CCc5[nH]nnc5C4)C[C@@H]32)cc2ccccc12 [Example 1.044, (4-methoxy-naphthalen-2-yl)-[(3aR,3bS,6aR,6bS)-5-((R)-4,5,6,7-tetrahydro-1H-benzotriazole-5-carbonyl)-octahydro-cyclobuta[1,2-c;3,4-c′]dipyrrol-2-yl]-methanone] | 0.013 |
| O=C(c1ccc(-c2ccc(Cl)cc2)nc1)N1C[C@@H]2[C@H](C1)[C@H]1CN(C(=O)c3ccc4[nH]nnc4c3)C[C@@H]21 [Example 1.045, [(3aS,3bS,6aR,6bR)-5-(1H-benzotriazole-5-carbonyl)-octahydro-cyclobuta[1,2-c;3,4-c′]dipyrrol-2-yl]-[6-(4-chloro-phenyl)-pyridin-3-yl]-methanone] | 0.011 |
| COc1nc(C(=O)N2C[C@@H]3[C@H]4CN(C(=O)c5ccc6[nH]nnc6c5)C[C@H]4[C@@H]3C2)cc2ccccc12 [Example 1.046, [(3aR,3bS,6aR,6bS)-5-(1H-benzotriazole-5-carbonyl)-octahydro-cyclobuta[1,2-c;3,4-c′]dipyrrol-2-yl]-(1-methoxy-isoquinolin-3-yl)-methanone] | 0.028 |
| Cc1cc(C(=O)N2C[C@@H]3[C@H]4CN(C(=O)c5ccc6[nH]nnc6c5)C[C@H]4[C@@H]3C2)nc2ccccc12 [Example 1.047, [(3aR,3bS,6aR,6bS)-5-(1H-benzotriazole-5-carbonyl)-octahydro-cyclobuta[1,2-c;3,4-c′]dipyrrol-2-yl]-(4-methyl-quinolin-2-yl)-methanone] | 0.205 |
| O=C(c1ccc2[nH]nnc2c1)N1C[C@@H]2[C@H](C1)[C@H]1CN(C(=O)c3cc4cc(Cl)ccc4[nH]3)C[C@@H]21 [Example 1.048, [(3aR,3bS,6aR,6bS)-5-(1H-benzotriazole-5-carbonyl)-octahydro-cyclobuta[1,2-c;3,4-c′]dipyrrol-2-yl]-(5-chloro-1H-indol-2-yl)-methanone] | 0.208 |
| COCCOc1cc(C(=O)N2C[C@@H]3[C@H](C2)[C@H]2CN(C(=O)c4ccc5[nH]nnc5c4)C[C@@H]32)cc2ccccc12 [Example 1.049, [(3aS,3bS,6aR,6bR)-5-(1H-benzotriazole-5-carbonyl)-octahydro-cyclobuta[1,2-c;3,4-c′]dipyrrol-2-yl]-[4-(2-methoxy-ethoxy)-naphthalen-2-yl]-methanone] | 0.004 |
| O=C(c1ccc2ccc(-c3ccccc3)cc2c1)N1C[C@@H]2[C@H](C1)[C@H]1CN(C(=O)c3ccc4[nH]nnc4c3)C[C@@H]21 [Example 1.050, [(3aS,3bS,6aR,6bR)-5-(1H-benzotriazole-5-carbonyl)-octahydro-cyclobuta[1,2-c;3,4-c′]dipyrrol-2-yl]-(7-phenyl-naphthalen-2-yl)-methanone] | 0.008 |
